Numbers after ± are expanded uncertainties.
Assay: xn = mol fraction of the nth substance listed
Conditions: Liquid, Vibrating tube method

c1ccsc1 [thiophene] + O=C=O
mass density (323.08 K, 12024 kPa, x2 = 0.3818): 1002.4 ± 0.42 kg/m3 | mass density (323.08 K, 12998 kPa, x2 = 0.3818): 1003.93 ± 0.42 kg/m3 | mass density (323.08 K, 14011 kPa, x2 = 0.3818): 1005.51 ± 0.42 kg/m3 | mass density (323.08 K, 15018 kPa, x2 = 0.3818): 1007.08 ± 0.42 kg/m3 | mass density (323.08 K, 15936 kPa, x2 = 0.3818): 1008.44 ± 0.42 kg/m3 | mass density (323.08 K, 17059 kPa, x2 = 0.3818): 1010.13 ± 0.42 kg/m3 | mass density (323.08 K, 17995 kPa, x2 = 0.3818): 1011.52 ± 0.42 kg/m3 | mass density (323.08 K, 19010 kPa, x2 = 0.3818): 1013.01 ± 0.42 kg/m3 | mass density (323.09 K, 8069 kPa, x2 = 0.6996): 950.76 ± 0.43 kg/m3 | mass density (323.09 K, 9063 kPa, x2 = 0.6996): 953.71 ± 0.43 kg/m3 | mass density (323.09 K, 10074 kPa, x2 = 0.6996): 956.72 ± 0.46 kg/m3 | mass density (323.09 K, 11045 kPa, x2 = 0.6996): 959.45 ± 0.45 kg/m3 | mass density (323.09 K, 11999 kPa, x2 = 0.6996): 962.01 ± 0.45 kg/m3 | mass density (323.09 K, 13038 kPa, x2 = 0.6996): 964.85 ± 0.45 kg/m3 | mass density (323.09 K, 14005 kPa, x2 = 0.6996): 967.35 ± 0.44 kg/m3 | mass density (323.09 K, 14998 kPa, x2 = 0.6996): 969.82 ± 0.44 kg/m3 | mass density (323.09 K, 16004 kPa, x2 = 0.6996): 972.38 ± 0.44 kg/m3 | mass density (323.09 K, 17044 kPa, x2 = 0.6996): 974.92 ± 0.44 kg/m3 | mass density (323.09 K, 17927 kPa, x2 = 0.6996): 976.97 ± 0.52 kg/m3 | mass density (323.15 K, 101 kPa, x2 = 0): 1026.98 ± 0.44 kg/m3 | mass density (332.79 K, 7987 kPa, x2 = 0.5661): 943.05 ± 0.43 kg/m3 | mass density (332.79 K, 9035 kPa, x2 = 0.5661): 945.99 ± 0.43 kg/m3 | mass density (332.79 K, 10035 kPa, x2 = 0.5661): 948.77 ± 0.43 kg/m3 | mass density (332.79 K, 11015 kPa, x2 = 0.5661): 951.37 ± 0.43 kg/m3 | mass density (332.79 K, 12021 kPa, x2 = 0.5661): 953.97 ± 0.43 kg/m3 | mass density (332.79 K, 13022 kPa, x2 = 0.5661): 956.49 ± 0.43 kg/m3 | mass density (332.79 K, 14010 kPa, x2 = 0.5661): 958.85 ± 0.43 kg/m3 | mass density (332.79 K, 15020 kPa, x2 = 0.5661): 961.27 ± 0.43 kg/m3 | mass density (332.79 K, 16037 kPa, x2 = 0.5661): 963.66 ± 0.43 kg/m3 | mass density (332.79 K, 17014 kPa, x2 = 0.5661): 965.85 ± 0.43 kg/m3 | mass density (332.79 K, 18001 kPa, x2 = 0.5661): 968.08 ± 0.43 kg/m3 | mass density (332.79 K, 19018 kPa, x2 = 0.5661): 970.3 ± 0.43 kg/m3 | mass density (332.85 K, 1015 kPa, x2 = 0): 1016.93 ± 0.44 kg/m3 | mass density (332.85 K, 2035 kPa, x2 = 0): 1018 ± 0.44 kg/m3 | mass density (332.85 K, 3004 kPa, x2 = 0): 1019.06 ± 0.44 kg/m3 | mass density (332.85 K, 3964 kPa, x2 = 0): 1020.05 ± 0.44 kg/m3 | mass density (332.85 K, 4991 kPa, x2 = 0): 1021.14 ± 0.44 kg/m3 | mass density (332.85 K, 5081 kPa, x2 = 0.199): 1002.75 ± 0.43 kg/m3 | mass density (332.85 K, 6001 kPa, x2 = 0): 1022.17 ± 0.44 kg/m3 | mass density (332.85 K, 6051 kPa, x2 = 0.199): 1004.04 ± 0.43 kg/m3 | mass density (332.85 K, 7014 kPa, x2 = 0): 1023.21 ± 0.44 kg/m3 | mass density (332.85 K, 7075 kPa, x2 = 0.199): 1005.38 ± 0.43 kg/m3 | mass density (332.85 K, 7998 kPa, x2 = 0): 1024.2 ± 0.44 kg/m3 | mass density (332.85 K, 8033 kPa, x2 = 0.199): 1006.63 ± 0.43 kg/m3 | mass density (332.85 K, 9006 kPa, x2 = 0.199): 1007.88 ± 0.43 kg/m3 | mass density (332.85 K, 9009 kPa, x2 = 0): 1025.23 ± 0.44 kg/m3 | mass density (332.85 K, 9995 kPa, x2 = 0): 1026.19 ± 0.44 kg/m3 | mass density (332.85 K, 10006 kPa, x2 = 0.199): 1009.13 ± 0.43 kg/m3 | mass density (332.85 K, 10989 kPa, x2 = 0): 1027.18 ± 0.44 kg/m3 | mass density (332.85 K, 11013 kPa, x2 = 0.199): 1010.42 ± 0.43 kg/m3 | mass density (332.85 K, 12006 kPa, x2 = 0): 1028.17 ± 0.44 kg/m3 | mass density (332.85 K, 12053 kPa, x2 = 0.199): 1011.71 ± 0.43 kg/m3 | mass density (332.85 K, 13009 kPa, x2 = 0): 1029.18 ± 0.44 kg/m3
